Reference: PubChem BioAssay AID248 (DTP/NCI, 2004)
Toxic doses and inconclusive results are not listed. Cut-off read from the data, not from the text of the source: active = T/C of 150% or more; inactive = T/C below 125%.

System: L1210 leukemia ip in BDF1 mice, survival T/C
Assay: NCI In Vivo Anticancer Drug Screen. Data for tumor model L1210 Leukemia (intraperitoneal) in B6D2F1 (BDF1) mice
Details: endpoint: mean survival time, higher = longer survival
Outline: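 Read-out is survival time, reported as the treated-group measurement over the vehicle-control measurement.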

[1] = dose: 100.0 mg/kg/injection, schedule: Q01DX009 (ip), vehicle: saline
[2] = dose: 100.0 mg/kg/injection, schedule: Q04DX003 (ip), vehicle: saline
[3] = dose: 200.0 mg/kg/injection, schedule: Q01DX009 (ip), vehicle: saline
[4] = dose: 200.0 mg/kg/injection, schedule: Q04DX003 (ip), vehicle: saline
[5] = dose: 400.0 mg/kg/injection, schedule: Q01DX009 (ip), vehicle: saline
[6] = dose: 400.0 mg/kg/injection, schedule: Q04DX003 (ip), vehicle: saline
[7] = dose: 100.0 mg/kg/injection, schedule: Q04DX002 (ip), vehicle: saline
[8] = dose: 200.0 mg/kg/injection, schedule: Q04DX002 (ip), vehicle: saline
[9] = dose: 400.0 mg/kg/injection, schedule: Q04DX002 (ip), vehicle: saline
[10] = dose: 100.0 mg/kg/injection, schedule: Q01DX001 (ip), vehicle: saline
[11] = dose: 200.0 mg/kg/injection, schedule: Q01DX001 (ip), vehicle: saline
[12] = dose: 100.0 mg/kg/injection, schedule: Q04DX003 (ip), vehicle: Klucel (hydroxypropylcellulose) (HPC)
[13] = dose: 200.0 mg/kg/injection, schedule: Q04DX003 (ip), vehicle: Klucel (hydroxypropylcellulose) (HPC)

Measured: T/C

C[Si](C)(C)O[Si](C)(C)c1ccccc1
inactive: dose: 50.0 mg/kg/injection, schedule: Q01DX009 (ip), vehicle: saline 102 % of control | [1] 88 % of control | [2] 103 % of control | [3] 99 % of control | [4] 109 % of control | [5] 96 % of control | [6] 95 % of control

Nc1ccn(Cc2ccccc2)c(=O)n1
inactive: dose: 75.0 mg/kg/injection, schedule: Q01DX001 (ip), vehicle: saline with Tween-80 95 % of control | dose: 150.0 mg/kg/injection, schedule: Q01DX001 (ip), vehicle: saline with Tween-80 94 % of control | dose: 300.0 mg/kg/injection, schedule: Q01DX001 (ip), vehicle: saline with Tween-80 95 % of control

COC(=O)COc1ccc(Cl)cc1Cl
inactive: [7] 100 % of control | [8] 107 % of control | [9] 100 % of control

COC(=O)C1CN(C)CCC1=O (stereo not given)
inactive: [10] 97 % of control | [11] 106 % of control | dose: 400.0 mg/kg/injection, schedule: Q01DX001 (ip), vehicle: saline 95 % of control

ClCc1noc(-c2ccccc2)n1
inactive: dose: 100.0 mg/kg/injection, schedule: Q04DX002 (ip), vehicle: saline with Tween-80 98 % of control | dose: 200.0 mg/kg/injection, schedule: Q04DX002 (ip), vehicle: saline with Tween-80 95 % of control | dose: 400.0 mg/kg/injection, schedule: Q04DX002 (ip), vehicle: saline with Tween-80 101 % of control

COc1ccc2[nH]c(=O)ccc2c1
inactive: dose: 300.0 mg/kg/injection, schedule: Q01DX001 (ip), vehicle: Klucel (hydroxypropylcellulose) (HPC) 98 % of control

COc1ccc(OC)c(NC(=O)N(CCC#N)C2CCCCC2)c1
inactive: [12] 91 % of control | [13] 91 % of control

O=C(O)CCl
inactive: dose: 50.0 mg/kg/injection, schedule: Q01DX001 (ip), vehicle: saline 98 % of control | [10] 104 % of control

CCCCCCN=C(N)c1ccc(NC(=O)c2ccc(C(=O)Nc3ccc(C(N)=NCCCCCC)cc3)cc2)cc1
inactive: dose: 0.62 mg/kg/injection, schedule: Q01DX015 (ip), vehicle: methylcellulose (MC) 101 % of control | dose: 1.25 mg/kg/injection, schedule: Q01DX015 (ip), vehicle: methylcellulose (MC) 95 % of control | dose: 2.5 mg/kg/injection, schedule: Q01DX015 (ip), vehicle: methylcellulose (MC) 103 % of control | dose: 5.0 mg/kg/injection, schedule: Q01DX015 (ip), vehicle: methylcellulose (MC) 112 % of control

CCCCCCC[CH2][Sn]([CH2]CCCCCCC)([NH]S(=O)(=O)c1ccc(C)cc1)[NH]S(=O)(=O)c1ccc(C)cc1
inactive: dose: 18.75 mg/kg/injection, schedule: Q01DX009 (ip), vehicle: saline sonified 102 % of control | dose: 37.5 mg/kg/injection, schedule: Q01DX009 (ip), vehicle: saline sonified 86 % of control | dose: 75.0 mg/kg/injection, schedule: Q04DX003 (ip), vehicle: Klucel (hydroxypropylcellulose) (HPC) 107 % of control

COc1c2c(cc3c1OCO3)C13CCN(C2)C1CC(OC)C1OC13 (stereo not given)
inactive: dose: 5.0 mg/kg/injection, schedule: Q01DX001 (ip), vehicle: other 97 % of control | dose: 10.0 mg/kg/injection, schedule: Q01DX001 (ip), vehicle: other 109 % of control | dose: 20.0 mg/kg/injection, schedule: Q01DX001 (ip), vehicle: other 97 % of control | dose: 40.0 mg/kg/injection, schedule: Q01DX001 (ip), vehicle: other 90 % of control | dose: 80.0 mg/kg/injection, schedule: Q01DX001 (ip), vehicle: other 89 % of control

Nc1cncc([N+](=O)[O-])c1N
inactive: [2] 98 % of control | [4] 96 % of control | [6] 94 % of control

CCCCCCCC[Si](c1ccc(C)cc1)(c1ccc(C)cc1)c1ccc(C)cc1
inactive: dose: 100.0 mg/kg/injection, schedule: Q01DX001 (ip), vehicle: other 97 % of control | dose: 200.0 mg/kg/injection, schedule: Q01DX001 (ip), vehicle: other 95 % of control | dose: 400.0 mg/kg/injection, schedule: Q01DX001 (ip), vehicle: other 97 % of control

O=C1C=CC(=O)C2=C1C1c3ccccc3C2([N+](=O)[O-])c2ccccc21
inactive: dose: 100.0 mg/kg/injection, schedule: Q01DX009 (ip), vehicle: Klucel (hydroxypropylcellulose) (HPC) 100 % of control | [12] 105 % of control | dose: 200.0 mg/kg/injection, schedule: Q01DX009 (ip), vehicle: Klucel (hydroxypropylcellulose) (HPC) 92 % of control | [13] 97 % of control | [4] 97 % of control | dose: 400.0 mg/kg/injection, schedule: Q01DX009 (ip), vehicle: Klucel (hydroxypropylcellulose) (HPC) 100 % of control | dose: 400.0 mg/kg/injection, schedule: Q04DX003 (ip), vehicle: Klucel (hydroxypropylcellulose) (HPC) 102 % of control | [6] 102 % of control

O=S(=O)(O)CCN1CCN(CCO)CC1
inactive: [1] 96 % of control | [2] 95 % of control | [3] 91 % of control | [4] 101 % of control | [5] 98 % of control | [6] 97 % of control

O=NN1CCCCC1C(=O)O (stereo not given)
inactive: [10] 98 % of control | [11] 102 % of control

CC(=O)OCCn1c([N+](=O)[O-])cnc1/C=[N+](/[O-])CCOC(C)=O
inactive: [7] 103 % of control | [8] 92 % of control | [9] 100 % of control

O=C(OCc1ccccc1CN1CCOCC1)c1ccc(Cl)cc1
inactive: dose: 100.0 mg/kg/injection, schedule: Q04DX002 (ip), vehicle: Klucel (hydroxypropylcellulose) (HPC) 103 % of control | dose: 200.0 mg/kg/injection, schedule: Q04DX002 (ip), vehicle: Klucel (hydroxypropylcellulose) (HPC) 106 % of control | dose: 400.0 mg/kg/injection, schedule: Q04DX002 (ip), vehicle: Klucel (hydroxypropylcellulose) (HPC) 100 % of control

CSCCO
inactive: [1] 89 % of control | dose: 100.0 mg/kg/injection, schedule: Q04DX003 (ip), vehicle: saline sonified 102 % of control | [3] 100 % of control | dose: 200.0 mg/kg/injection, schedule: Q04DX003 (ip), vehicle: saline sonified 116 % of control | [5] 96 % of control | dose: 400.0 mg/kg/injection, schedule: Q04DX003 (ip), vehicle: saline sonified 98 % of control
